Measured values as given in US20260347347A1, “2-AZA-AND 2-OXABICYCLO[2.1.1]HEXANE DERIVATIVES AS FACTOR XIIA ENZYME INHIBITORS” (KALVISTA PHARMACEUTICALS LIMITED, priority 2022, published 2026).
pIC50: −log10 of the molar value.

Molecular target: T1, Human Factor XIIa (Homo sapiens, UniProt P00748)
T1 construct: purchased Enzyme Research Laboratories
T1 sequence (P00748 373-615 limits assumed): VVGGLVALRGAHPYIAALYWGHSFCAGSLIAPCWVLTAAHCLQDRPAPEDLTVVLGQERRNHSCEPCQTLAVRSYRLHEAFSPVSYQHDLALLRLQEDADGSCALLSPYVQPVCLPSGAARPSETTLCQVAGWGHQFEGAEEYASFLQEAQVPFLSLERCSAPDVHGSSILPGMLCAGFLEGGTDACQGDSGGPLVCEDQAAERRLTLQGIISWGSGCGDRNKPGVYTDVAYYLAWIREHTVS
T1 sequence (P00748 20-372 partner limits assumed): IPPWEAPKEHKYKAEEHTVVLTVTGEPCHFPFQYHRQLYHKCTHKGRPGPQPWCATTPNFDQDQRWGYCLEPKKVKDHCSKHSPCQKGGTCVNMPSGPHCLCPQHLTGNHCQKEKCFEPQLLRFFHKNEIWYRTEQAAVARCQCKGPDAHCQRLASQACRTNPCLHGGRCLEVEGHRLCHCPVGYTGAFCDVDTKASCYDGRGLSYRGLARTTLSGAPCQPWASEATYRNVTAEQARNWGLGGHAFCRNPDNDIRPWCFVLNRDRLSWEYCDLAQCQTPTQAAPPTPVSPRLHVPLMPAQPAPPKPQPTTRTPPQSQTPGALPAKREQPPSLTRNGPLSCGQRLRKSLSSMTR
Assay: Determination of FXIIa inhibition (in vitro IC50 assay, fluorogenic substrate H-DPro-Phe-Arg-AFC)
Format: biochemical
Settings: human Factor XIIa, fluorogenic substrate H-DPro-Phe-Arg-AFC at Km concentration, 5 min, 25 °C; for pIC50: class symbols, read-out: Human FXIIa IC50
Procedure: In vitro inhibition of Factor XIIa was determined using an IC50 assay based on standard literature methods (see e.g Baeriswyl et al., ACS Chem. Biol., 2015, 10 (8) 1861; Bouckaert et al., European Journal of Medicinal Chemistry 110 (2016) 181). Human Factor XIIa (Enzyme Research Laboratories) was incubated at 25 °C with the fluorogenic substrate H-DPro-Phe-Arg-AFC (Peptide Protein Science) and various concentrations of the test compound. Protease activity was measured by monitoring the accumulation of liberated fluorescence from the substrate over 5 min at 25 °C. The linear rate of fluorescence increase per minute was expressed as percentage (%) activity. The Km for the cleavage of the substrate by FXIIa was determined by standard transformation of the Michaelis-Menten equation. The compound inhibitor assays were performed at substrate Km concentration. IC50 values were calculated as the concentration of inhibitor giving 50% inhibition (IC50) of the uninhibited enzyme activity (100%).

pIC50 | Human FXIIa inhibition (compounds that did not achieve 50% inhibition) (class symbols H1/H2 for % inhibition at top concentration) | SMILES
7.00 to 8.00 |  | Cc1cc(OCC23CN(C(=O)N(C)C[C@@H]4CCOC4)C(CNc4cccc5c(N)nccc45)(C2)C3)cc(=O)n1C [Example 47, (S)-1-(((1-aminoisoquinolin-5-yl)amino)methyl)-4-(((1,6-dimethyl-2-oxo-1,2-dihydropyridin-4-yl)oxy)methyl)-N-methyl-N-((tetrahydrofuran-3-yl)methyl)-2-azabicyclo[2.1.1]hexane-2-carboxamide]
7.00 to 8.00 |  | Cc1cc(OCC23CN(C(=O)N4CC[C@H](c5ccccc5)C4)C(CNc4cccc5c(N)nccc45)(C2)C3)cc(=O)n1C [Example 49, (R)-4-((1-(((1-aminoisoquinolin-5-yl)amino)methyl)-2-(3-phenylpyrrolidine-1-carbonyl)-2-azabicyclo[2.1.1]hexan-4-yl)methoxy)-1,6-dimethylpyridin-2(1H)-one]
7.00 to 8.00 |  | Cn1ccc(OCC23CN(C(=O)N4CC5(CCC5)C4)C(CNc4cccc5c(N)nccc45)(C2)C3)cc1=O [Example 51, 4-((1-(((1-aminoisoquinolin-5-yl)amino)methyl)-2-(2-azaspiro[3.3]heptane-2-carbonyl)-2-azabicyclo[2.1.1]hexan-4-yl)methoxy)-1-methylpyridin-2(1H)-one]
7.00 to 8.00 |  | CN(CC1CC1)C(=O)N1CC2(COc3ccn(C)c(=O)c3)CC1(CNc1cccc3c(N)nccc13)C2 [Example 53, 1-(((1-aminoisoquinolin-5-yl)amino)methyl)-N-(cyclopropylmethyl)-N-methyl-4-(((1-methyl-2-oxo-1,2-dihydropyridin-4-yl)oxy)methyl)-2-azabicyclo[2.1.1]hexane-2-carboxamide]
7.00 to 8.00 |  | Cn1ccc(OCC23CN(C(=O)N4CCCCC4)C(CNc4cccc5c(N)nccc45)(C2)C3)cc1=O [Example 54, 4-((1-(((1-aminoisoquinolin-5-yl)amino)methyl)-2-(piperidine-1-carbonyl)-2-azabicyclo[2.1.1]hexan-4-yl)methoxy)-1-methylpyridin-2(1H)-one]
 | H2 (>20% inhibition @ 100 μM) | Cc1cc(OCC23CN(C(=O)NC4(c5ccccc5)CC4)C(CNc4cccnc4)(C2)C3)cc(=O)n1C [Example 55, 4-(((1,6-dimethyl-2-oxo-1,2-dihydropyridin-4-yl)oxy)methyl)-N-(1-phenylcyclopropyl)-1-((pyridin-3-ylamino)methyl)-2-azabicyclo[2.1.1]hexane-2-carboxamide]

The next lines start with the compound.

SMILES | pIC50 | Human FXIIa inhibition (compounds that did not achieve 50% inhibition) (class symbols H1/H2 for % inhibition at top concentration)
Cc1cc(OCC23CN(C(=O)N4CC5(CCOCC5)C4)C(CNc4cccc5c(N)nccc45)(C2)C3)cc(=O)n1C [Example 46, 4-((1-(((1-aminoisoquinolin-5-yl)amino)methyl)-2-(7-oxa-2-azaspiro[3.5]nonane-2-carbonyl)-2-azabicyclo[2.1.1]hexan-4-yl)methoxy)-1,6-dimethylpyridin-2(1H)-one] | 7.00 to 8.00 | 
Cc1cc(OCC23CN(C(=O)N(C)C[C@H]4CCOC4)C(CNc4cccc5c(N)nccc45)(C2)C3)cc(=O)n1C [Example 48, (R)-1-(((1-aminoisoquinolin-5-yl)amino)methyl)-4-(((1,6-dimethyl-2-oxo-1,2-dihydropyridin-4-yl)oxy)methyl)-N-methyl-N-((tetrahydrofuran-3-yl)methyl)-2-azabicyclo[2.1.1]hexane-2-carboxamide] | 7.00 to 8.00 | 
Cn1ccc(OCC23CN(C(=O)N4Cc5ccccc5C4)C(CNc4cccc5c(N)nccc45)(C2)C3)cc1=O [Example 50, 4-((1-(((1-aminoisoquinolin-5-yl)amino)methyl)-2-(isoindoline-2-carbonyl)-2-azabicyclo[2.1.1]hexan-4-yl)methoxy)-1-methylpyridin-2(1H)-one] | 7.00 to 8.00 | 
Cn1ccc(OCC23CN(C(=O)Nc4ccc5c(c4)CCCO5)C(CNc4cccc5c(N)nccc45)(C2)C3)cc1=O [Example 52, 1-(((1-aminoisoquinolin-5-yl)amino)methyl)-N-(chroman-6-yl)-4-(((1-methyl-2-oxo-1,2-dihydropyridin-4-yl)oxy)methyl)-2-azabicyclo[2.1.1]hexane-2-carboxamide] | 9.00 to 10.00 | 
